Molecules are shown by their SMILES.

Broadly, the IC50 is the point on the concentration scale where inhibition reaches its midpoint.

In series [1] the test system is MCF-10A (normal breast) cells. The experiment in a line: MTT cytotoxicity bioassay against normal MCF-10A cells. The format is cell-based. To be noted: for IC50: Homo sapiens, MCF-10A, 48 h, read-out: IC50 ± SD, MCF-10A; for cytotoxicity versus normal MCF-10A cells (in words): MTT.
Series [2] deals with EGFR kinase (Homo sapiens, UniProt P00533). Put plainly: EGFR-TK kinase inhibitory assay. The format is biochemical.
The target in series [3] is CDK-2 kinase (Homo sapiens, UniProt P24941). Put plainly: CDK-2 luminescence kinase inhibitory assay. The format is biochemical.
The subject of series [4] is MCF-7 (breast cancer cells). Put plainly: MTT cytotoxicity bioassay against MCF-7. The format is cell-based, human. To be noted: read-out: IC50 ± SD, MCF-7, 48 h, mean ± SD, n = 3.

Sequence of EGFR kinase (P00533 25-1210): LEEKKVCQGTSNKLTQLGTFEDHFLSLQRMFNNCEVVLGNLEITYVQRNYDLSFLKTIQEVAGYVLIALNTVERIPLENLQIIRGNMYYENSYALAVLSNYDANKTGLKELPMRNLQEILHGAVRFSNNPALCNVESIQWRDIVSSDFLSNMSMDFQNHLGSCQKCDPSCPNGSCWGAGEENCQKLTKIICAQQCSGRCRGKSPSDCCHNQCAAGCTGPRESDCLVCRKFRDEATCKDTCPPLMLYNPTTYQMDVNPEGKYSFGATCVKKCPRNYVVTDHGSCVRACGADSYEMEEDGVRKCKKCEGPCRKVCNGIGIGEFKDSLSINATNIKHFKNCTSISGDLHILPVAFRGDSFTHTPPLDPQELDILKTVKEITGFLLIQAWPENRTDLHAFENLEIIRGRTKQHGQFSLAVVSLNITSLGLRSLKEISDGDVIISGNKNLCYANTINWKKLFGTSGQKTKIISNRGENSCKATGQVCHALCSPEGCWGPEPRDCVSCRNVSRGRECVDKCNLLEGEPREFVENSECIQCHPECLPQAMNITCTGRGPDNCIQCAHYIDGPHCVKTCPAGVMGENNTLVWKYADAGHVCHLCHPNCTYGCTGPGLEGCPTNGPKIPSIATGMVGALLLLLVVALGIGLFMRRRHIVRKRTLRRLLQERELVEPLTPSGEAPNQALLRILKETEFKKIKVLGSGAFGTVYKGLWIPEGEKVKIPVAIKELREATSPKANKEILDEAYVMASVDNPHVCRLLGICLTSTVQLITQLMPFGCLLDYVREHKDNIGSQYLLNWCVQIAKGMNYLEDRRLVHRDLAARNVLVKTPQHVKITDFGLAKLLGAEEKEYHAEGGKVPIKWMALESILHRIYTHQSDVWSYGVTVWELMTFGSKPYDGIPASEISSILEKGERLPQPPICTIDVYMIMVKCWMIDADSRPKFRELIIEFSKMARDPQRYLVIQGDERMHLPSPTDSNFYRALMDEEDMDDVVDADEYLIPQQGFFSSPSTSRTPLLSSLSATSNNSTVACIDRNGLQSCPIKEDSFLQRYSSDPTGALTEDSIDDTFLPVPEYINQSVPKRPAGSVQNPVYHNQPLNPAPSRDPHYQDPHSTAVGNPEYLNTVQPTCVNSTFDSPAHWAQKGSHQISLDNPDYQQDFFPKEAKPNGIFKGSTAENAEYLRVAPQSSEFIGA

Consider `O=C(c1ccc2ccccc2c1)c1cn(-c2ccccc2)nc1C1=Nn2c(S)nnc2SC1` [Compound 4c, 6-(4-(2-Naphthoyl)-1-phenyl-1H-pyrazol-3-yl)-7H-[1,2,4]triazolo[3,4-b][1,3,4]thiadiazin-3-thiol], for which the figures for the IC50 in series [1], in series [2] and in series [3] were 46.7 ± 1.7 µM, 0.0896 ± 0.0024 µM and 0.165 ± 0.00314 µM, respectively. The “cytotoxicity versus normal MCF-10A cells (in words)” value in series [1] is “safe”.

As to `O=C(c1ccc2ccccc2c1)c1cn(-c2ccccc2)nc1C1=Nn2c(SCCSc3nnc4n3N=C(c3nn(-c5ccccc5)cc3C(=O)c3ccc5ccccc5c3)CS4)nnc2SC1` [Compound 8a, 1,2-Bis((6-(4-(2-naphthoyl)-1-phenyl-1H-pyrazol-3-yl))-7H-[1,2,4]triazolo[3,4-b][1,3,4]-thiadiazin-3-ylthio)ethane], in series [1], the concentration for half-maximal inhibition (IC50) was determined as 38.9 ± 0.89 µM.

Regarding `O=C(c1ccc2ccccc2c1)c1cn(-c2ccccc2)nc1C1=Nn2c(SCCCSc3nnc4n3N=C(c3nn(-c5ccccc5)cc3C(=O)c3ccc5ccccc5c3)CS4)nnc2SC1` [Compound 8b, 1,3-Bis((6-(4-(2-naphthoyl)-1-phenyl-1H-pyrazol-3-yl))-7H-[1,2,4]triazolo[3,4-b][1,3,4]-thiadiazin-3-ylthio)propane], the IC50 in series [1] worked out at 29.6 ± 0.8 µM.

In the case of `O=C(c1ccc2ccccc2c1)c1cn(-c2ccccc2)nc1C(=O)CBr` [Compound 2, 3-Bromoacetyl-4-(2-naphthoyl)-1-phenyl-1H-pyrazole], the concentration for half-maximal inhibition (IC50) in series [1] was found to be 37.5 ± 1.9 µM.

Turning to `O=C(c1ccc2ccccc2c1)c1cn(-c2ccccc2)nc1C1=Nn2c(nnc2SCc2ccccc2CSc2nnc3n2N=C(c2nn(-c4ccccc4)cc2C(=O)c2ccc4ccccc4c2)CS3)SC1` [Compound 10, 1,2-Bis((6-(4-(2-naphthoyl)-1-phenyl-1H-pyrazol-3-yl))-7H-[1,2,4]triazolo[3,4-b][1,3,4]-thiadiazin-3-ylthiomethyl)benzene], the IC50 in series [1] turned out to be 31.2 ± 0.9 µM.

Take `C#Cc1cccc(Nc2ncnc3cc(OCCOC)c(OCCOC)cc23)c1` [Erlotinib, reference compound]: the concentration for half-maximal inhibition (IC50) in series [1] is not below 50 µM.

Take `O=C(c1ccc2ccccc2c1)c1cn(-c2ccccc2)nc1C1=Nn2c(nnc2-c2ccccc2)SC1` [Compound 4b, 3-Phenyl-6-(4-(2-naphthoyl)-1-phenyl-1H-pyrazol-3-yl)-7H-[1,2,4]triazolo[3,4-b][1,3,4]-thiadiazine]: the IC50 is not below 50 µM in series [1], 0.0717 ± 0.0021 µM in series [2], 0.114 ± 0.0029 µM in series [3] and 3.16 ± 0.29 µM in series [4]. For the same compound, the “cytotoxicity versus normal MCF-10A cells (in words)” value in series [1] was “safe”.

In the case of `O=C(c1ccc2ccccc2c1)c1cn(-c2ccccc2)nc1C1=Nn2cnnc2SC1` [Compound 4a, 6-(4-(2-Naphthoyl)-1-phenyl-1H-pyrazol-3-yl)-7H-[1,2,4]triazolo[3,4-b][1,3,4]thiadiazine], in series [1], the IC50 was not below 50 µM.
